For data set [1], the target named is T1, membrane BCMA on malignant plasma cells (Homo sapiens, UniProt Q02223).
T1 construct: from tissue; host or cells: multiple myeloma cells in patients' bone marrow aspirates
T1 sequence (Q02223 1-184): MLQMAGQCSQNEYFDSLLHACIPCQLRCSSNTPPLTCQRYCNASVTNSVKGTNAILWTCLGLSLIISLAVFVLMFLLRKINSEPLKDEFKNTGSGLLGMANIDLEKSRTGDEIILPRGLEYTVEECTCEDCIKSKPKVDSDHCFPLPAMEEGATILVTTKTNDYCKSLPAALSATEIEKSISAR
The data set can be described thus: Flow cytometric assessment of BCMA expression and engagement on MM cells in bone marrow. The data set is classed as in vivo. Here is the method:
A Flow Cytometric Assay was designed to identify multiple myeloma cells in patients bone marrow aspirate, and measure levels of BCMA (unbound and total) and APRIL on the MM cell surface.
Bone marrow aspirates were collected from enrolled patients at Baseline and on-treatment (C2D22, confirmation of CR, per standard of care), and tested by flow cytometry with one day of collection in most cases.
MM cells detection was performed using extracellular CD138, CD38, CD45, CD56 and CD28 staining and intracellular kappa and lambda light chains staining. […] Detection of APRIL, most probably bound to BCMA on the MM cell surface, is also performed.
Each sample was split into 3 aliquots: one aliquot stained using only the MM gating antigens but no anti-BCMA or anti-APRIL antibodies (gating control), one aliquot stained with MM Gating antigens and the two labeled anti-BCMA antibodies, and one incubated for 2 hours at 37 C with spiked BCMA (100 ug/mL) before staining with MM gating antigens+APRIL+labeled non-competing anti-BCMA 16.16 antibody. After staining, washing and fixation in 2% paraformaldyde, cells were analyzed on a BD FACScanto cytometer, with up to 2×10^6 leukocytes acquired. Data analysis was performed with FACS Diva (Q2) and FlowJo (Seattle Genetics).

Data set [2] deals with relapsed or refractory multiple myeloma (RRMM). The data set can be described thus: Clinical antitumor activity (IMWG response, serum free light chain). The data set is classed as in vivo, human. Here is the method:
Response assessment included SPEP/immunofixation, UPEP/immunofixation (in patients with a baseline urine M protein ≥200 mg/24 hour or for assessment of VGPR or better), SFLC, quantitative immunoglobulins, and plasmacytoma evaluation by imaging (at baseline, every 4 cycles, and at additional time points if clinically indicated). These samples were collected for local assessment. In addition, blood were analyzed in the central laboratory using a modified SPEP for patients with IgG myeloma.
The determination of antitumor activity were based on response assessments made according to the 2016 IMWG Criteria (Kumar et al., Lancet Oncol 17(8): e328-46, 2016) and treatment decisions by the investigator were based on these assessments. Clinical response of sCR, CR, VGPR, PR, SD, and PD were determined at each assessment based on local laboratory (and the modified SPEP run by the central laboratory for patients with IgG MM), radiological, and clinical evaluations. Progressive disease was based on IMWG 2016 criteria and/or clinical disease progression per investigator. All IMWG responses were confirmed responses. When applicable, determination of immunophenotypic CR, MRD status, and minimal response were made per the IMWG 2016 criteria.
Kappa and lambda free light chains were quantified in serum of patients as surrogate markers of antitumor activity.
A patient was determined to have an OR if, based on the 2016 IMWG uniform response criteria, they achieve a sCR, CR, VGPR, or a PR. The ORR is defined as the proportion of patients with an OR per investigator. Patients whose disease response could not be evaluated per the 2016 IMWG uniform response criteria were scored as Not Evaluable for calculating the ORR.

A further data set deals with T2, BCMA on MM1R cells (Homo sapiens, UniProt Q02223).
T2 construct: endogenous in cells; host or cells: MM1R cells
T2 sequence (Q02223 1-184): T1 sequence (Q02223 1-184)
The data set can be described thus: In vitro cell binding capacity assay (free SEA-BCMA in patient serum). The data set is classed as cell-based. The note with it: for patients in whom high levels of free SEA-BCMA were maintained throughout the dosing period: Q2wk. The source says:
An in vitro cell binding capacity assay was developed to complement serum concentration measurements of total SEA-BCMA, total soluble BCMA, and flow cytometric evaluation of free, unbound BCMA and total BCMA on plasma cells from the bone marrow. The assay measures the ability of free, unbound SEA-BCMA (e.g. not bound by sBCMA) from patient serum to bind and saturate BCMA in-vitro on a BCMA positive cell line. Titrations of known SEA-BCMA concentrations allow for an evaluation of the concentrations of free, unbound SEA-BCMA in patient serum. Together with a measurement of the percent-bound BCMA on the cell surface, this provides a direct indication of the ability of dosed SEA-BCMA to bind and saturate cell membrane-bound BCMA.
After incubation at room temperature for ½ hour, the cells were washed and stained with a saturating amount of SEA-BCMA conjugated to a fluorescent dye. After incubation at 4° C. in the dark for ½ hr, the cells were washed and fixed. Stained cells were analyzed on an Invitrogen Attune NxT flow cytometer. FlowJo V10 software was used to gate on viable cells and record the median fluorescent intensity (MFI). GraphPad Prism 8 was used for analysis.
The recorded MFI was normalized as follows. Normalization to 0% binding is the MFI from a control well incubated in healthy human serum with no SEA-BCMA present. Normalization to 100% binding is the MFI from a control well incubated in healthy human serum spiked with SEA-BCMA to a concentration 200 μg/mL. A titration of SEA-BCMA in healthy human serum may be used to generate a standard curve using the known amounts of SEA-BCMA.
The maintenance of free SEA-BCMA in the patient serum that are able to bind in vitro to the cell-surface BCMA of a BCMA-expressing cell line was investigated.

The nature of data set [3]: Antitherapeutic antibody (ATA) assessment in patient serum. The data set is classed as in vivo, human. The following applies: all samples tested. The text has this:
A qualified electrochemiluminescence assay were used to assess ATA.

Several values for one entry are separate records, joined by “and”; a condition that tells them apart may be missing. Identical values can stand only once.

As for “SEA-BCMA: non-fucosylated monoclonal anti-BCMA antibody having heavy chain SEQ ID NO: 13 and light chain SEQ ID NO: 15”, the “saturation of membrane BCMA” value is reported as “complete saturation was observed in at least one patient” in data set [1] (1600 mg); “Incomplete saturation of membrane BCMA” in data set [1] (evaluable patients dosed at 800 mg and 1600 mg). The “unbound membrane BCMA on malignant plasma cells” value in data set [1] (bone marrow of patients treated in dose escalation) is “reduced levels of unbound membrane BCMA”. Further, the “response by dose level” value in data set [2] (1600 mg per dose once every 2 weeks vs 100-800 mg) is reported as “highest overall confirmed response rate”. Further, the response assessment entry in data set [2] (Patient A, 1600 mg every two weeks, 7 prior lines) is recorded as “very good partial response (VGPR)”. The “time to which low level of sFLC was maintained” value in data set [2] (Patient A, 1600 mg every two weeks, after the first dose) is at least 40 days. Also, the response entry in data set [2] (all dose levels (100-1600 mg), after a minimum of 3 cycles of treatment) was “stable disease was observed”; in data set [2] (combination with dexamethasone, SEA-BCMA Day 1 and 15, dexamethasone Day 1, 8, 15, 22 of 28-day cycle), “Confirmed responses were also observed”; in data set [2] (intensive dosing: 1600 mg q1wk for 8 doses, then once every two weeks) it was “Confirmed responses were also observed”; in data set [2] (patient, 200 mg escalated to 1600 mg, 8 prior lines) it was “maintaining stable disease even 10 months after commencement of treatment”. Further, the “patients with confirmed very good partial response (VGPR)” value in data set [2] (among 3 response evaluable patients, 1600 mg) is reported as 1 patient. Also, in data set [2] (patient (Patient A), one week after first 1600 mg dose), the “decrease of serum free light chain (sFLC) level” value is reported as “about 90%”. The “patients in whom high levels of free SEA-BCMA were maintained throughout the dosing period” value with BCMA on MM1R cells (800 mg (or equivalent)) is 6/8 and 6 out of 8; with BCMA on MM1R cells (1600 mg) it was 7/7 and all patients. Also, the “maintenance of >95% bound BCMA in vitro through the dosing interval” value with BCMA on MM1R cells (serum of patients dosed 100 mg-400 mg, two doses 14 days apart) is recorded as “not able to maintain >95% bound BCMA in vitro”. Besides, the anti-SEA-BCMA antibodies result in data set [3] is “No anti-SEA-BCMA antibodies were found”.

Values taken from patent US20230118517A1, “METHODS OF TREATING MULTIPLE MYELOMA” (Seagen Inc., priority 2020, published 2023).
